A word on the MIC: it is the least concentration at which growth counts as inhibited. A higher MIC goes with a less susceptible organism.

Results on one compound are retold here after US4081531A, “Antibiotic mimosamycin” (priority 1975, dated 1978).

Converted amounts (≈) assume the structure as drawn.

For the test, the system named is Mycobacterium tuberculosis SMR. Put plainly: Antimicrobial activity (MIC) against tubercle bacilli. Format: cell-based. Particulars: 672 h.

`COC1=C(C)C(=O)c2cc(=O)n(C)cc2C1=O` [mimosamycin]: inhibition of growth (MIC) required 1.56 µg/mL (≈ 6.69 µM).
